Reference: BindingDB's records for doi:10.1021/jm0496077 (University of Southern California, 2005)
pIC50: −log10 of the molar value.

What was measured:
[1] = molecular target: Integrase (Human immunodeficiency virus 1); assay: Inhibitory concentration against human immuno deficiency virus type 1 integrase (Strand Transfer)
[2] = molecular target: Integrase (Human immunodeficiency virus 1); assay: Inhibitory concentration against human immuno deficiency virus type 1 integrase (3'-processing)
[3] = molecular target: Integrase (Human immunodeficiency virus 1); assay: Concentration required to inhibit catalytic activity of human immuno deficiency virus type 1 integrase

Row | pIC50 [1] | pIC50 [2] | pIC50 [3] | Structure (SMILES)
1 | 4.74 | 4.70 |  | O=C(CN1C(=O)/C(=C/c2ccccc2Cl)SC1=S)Nc1cc([N+](=O)[O-])ccc1O [2-{5-[1-(2-Chloro-phenyl)-meth-(Z)-ylidene]-4-oxo-2-thioxo-thiazolidin-3-yl}-N-(2-hydroxy-5-nitro-phenyl)-acetamide]
2 | < 4.00 | 4.03 |  | CCOc1ccc(/C=C2\SC(=S)N(CCC(=O)Nc3cccc(C(=O)O)c3)C2=O)cc1
3 | 4.57 | 4.28 |  | O=C(NN1C(=O)C(=Cc2ccc(Br)cc2)SC1=S)c1ccccc1O [N-{5-[1-(4-Bromo-phenyl)-meth-(Z)-ylidene]-4-oxo-2-thioxo-thiazolidin-3-yl}-2-hydroxy-benzamide]
4 | 4.77 | 4.82 |  | O=C(CCN1C(=O)/C(=C/c2ccc3c(c2)OCO3)SC1=S)Nc1ccc(O)c(C(=O)O)c1 [5-(3-{5-[1-Benzo[1,3]dioxol-5-yl-meth-(Z)-ylidene]-4-oxo-2-thioxo-thiazolidin-3-yl}-propionylamino)-2-hydroxy-benzoic acid]
5 |  |  | > 6.00 | O=C(/C=C(\O)c1ccc(Cc2ccc(F)cc2)o1)c1cc[nH]c1
6 | 4.64 | 4.48 |  | O=C(CCN1C(=O)/C(=C/c2ccc3c(c2)OCO3)SC1=S)Nc1ccc(C(=O)O)c(O)c1 [4-(3-{5-[1-Benzo[1,3]dioxol-5-yl-meth-(Z)-ylidene]-4-oxo-2-thioxo-thiazolidin-3-yl}-propionylamino)-2-hydroxy-benzoic acid]
7 | 4.10 | 4.08 |  | Cc1ccc(/C=C2\SC(=S)N(CC(=O)Nc3cc([N+](=O)[O-])ccc3O)C2=O)cc1 [N-(2-Hydroxy-5-nitro-phenyl)-2-{4-oxo-2-thioxo-5-[1-p-tolyl-meth-(Z)-ylidene]-thiazolidin-3-yl}-acetamide]
8 | < 4.00 | < 4.00 |  | O=C(NC(=S)Nc1ccc(O)c(C(=O)O)c1)c1ccccc1 [5-(3-Benzoyl-thioureido)-2-hydroxy-benzoic acid]
9 | 4.00 | < 4.00 |  | O=C1/C(=C/c2c(NCCO)nc3ccccn3c2=O)SC(=S)N1Cc1ccco1 [3-[3-Furan-2-ylmethyl-4-oxo-2-thioxo-thiazolidin-(5E)-ylidenemethyl]-2-(2-hydroxy-ethylamino)-pyrido[1,2-a]pyrimidin-4-one]
10 | < 4.00 | < 4.00 |  | O=C1/C(=C/c2ccc(O)cc2O)SC(=S)N1c1ccccc1 [5-[1-(2,4-Dihydroxy-phenyl)-meth-(Z)-ylidene]-3-phenyl-2-thioxo-thiazolidin-4-one]
11 | 4.77 | 4.21 |  | COc1ccc(/C=C2/SC(=S)N(CCC(=O)Nc3ccc(C(=O)O)c(O)c3)C2=O)cc1OC [4-(3-{5-[1-(3,4-Dimethoxy-phenyl)-meth-(Z)-ylidene]-4-oxo-2-thioxo-thiazolidin-3-yl}-propionylamino)-2-hydroxy-benzoic acid]
